# From ChEMBL document CHEMBL6120963, “Discovery of Novel PROTAC SIRT6 Degraders with Potent Efficacy against Hepatocellular Carcinoma” (J Med Chem, 2024)
# Activity calls are given as the source filed them. The rule behind the calls is not given here.
# How the values were obtained:
# [1] = biological target: T1, Protein cereblon/NAD-dependent protein deacylase sirtuin-6 (Homo sapiens, UniProt Q8N6T7+Q96SW2); experiment: PROTAC activity at CRBN/SIRT6 in human SK-HEP1 cells assessed as induction of SIRT6 degradation at 2 to 3 uM incubated for 36 hrs by Western blot analysis; type: cell-based; conditions: dose 2-3 µM
# [2] = biological target: T1, Protein cereblon/NAD-dependent protein deacylase sirtuin-6; experiment: PROTAC activity at CRBN/SIRT6 in human Huh-7 cells assessed as hook effect at 5 uM incubated for 36 hrs by Western blot analysis; type: cell-based
# SK-HEP1 [3] = experiment: Effect on SIRT1 expression in human SK-HEP1 cells at 0.002 to 1 uM incubated for 36 hrs by Western blot analysis; type: functional, cell-based; conditions: dose 0.002-1 µM
# [4] = biological target: T1, Protein cereblon/NAD-dependent protein deacylase sirtuin-6; experiment: PROTAC activity at CRBN/SIRT6 in human SK-HEP1 cells assessed as increase in H3K9Ac level incubated for 36 hrs by Western blot analysis; type: cell-based; conditions: dose 0.002-1 µM
# [5] = biological target: T1, Protein cereblon/NAD-dependent protein deacylase sirtuin-6; experiment: PROTAC activity at CRBN/SIRT6 in human SK-HEP1 cells assessed as reduction in number of SIRT6 foci incubated for about 36 hrs by immunofluorescence based analysis; type: cell-based; conditions: dose <= 5.0 µM
# [6] = biological target: T1, Protein cereblon/NAD-dependent protein deacylase sirtuin-6; experiment: PROTAC activity at CRBN/SIRT6 in human SK-HEP1 cells assessed as reduction in density of SIRT6 foci incubated for about 36 hrs by immunofluorescence based analysis; type: cell-based; conditions: dose <= 5.0 µM
# [7] = biological target: T1, Protein cereblon/NAD-dependent protein deacylase sirtuin-6; experiment: PROTAC activity at CRBN/SIRT6 in human SK-HEP1 cells assessed as reduction in fluorescence intensity of SIRT6 labeling incubated for about 36 hrs by immunofluorescence based analysis; type: cell-based
# [8] = biological target: T1, Protein cereblon/NAD-dependent protein deacylase sirtuin-6; experiment: PROTAC activity at CRBN/SIRT6 in human SK-HEP1 cells assessed as induction of SIRT6 degradation at 1 uM pretreated for 36 hrs followed by compound washout measured for 36 hrs by Western blot analysis; type: cell-based
# [9] = biological target: T1, Protein cereblon/NAD-dependent protein deacylase sirtuin-6; experiment: PROTAC activity at CRBN/SIRT6 in MLN4924-treated human SK-HEP1 cells assessed as induction of SIRT6 degradation at 2.5 uM treated for 36 hrs by Western blot analysis; type: cell-based
# SK-HEP1 [10] = experiment: Cytotoxicity against human SK-HEP1 cells incubated for 72 hrs by CCK8 assay; type: functional, cell-based; conditions: SK-HEP1, 72 h
# SK-HEP1 [11] = experiment: Inhibition of colony formation in human SK-HEP1 cells at 5 to 10 uM incubated for 10 to 14 days with replacement of medium containing compounds on every 3 days by crystal violet staining based analysis; type: functional, cell-based; conditions: dose 5-10 µM, time 10-14 day
# SK-HEP1 [12] = experiment: Induction of apoptosis in human SK-HEP1 cells assessed as rate of apoptotic cells at 10 uM incubated for 72 hrs by Annexin V-FITC/PI staining based flow cytometry relative to control; type: functional
# SK-HEP1 [13] = experiment: Induction of apoptosis in human SK-HEP1 cells at 2.5 uM incubated for 72 hrs in presence of CPT by Annexin V-FITC/PI staining based flow cytometry; type: functional, cell-based
# SK-HEP1 [14] = experiment: Effect of SIRT6 mRNA expression in human SK-HEP1 cells at 2.5 uM incubated for 36 hrs by RT-qPCR analysis; type: functional, cell-based
# SK-HEP1 [15] = experiment: Effect of SIRT2 mRNA expression in human SK-HEP1 cells at 2.5 uM incubated for 36 hrs by RT-qPCR analysis; type: functional, cell-based
# SK-HEP1 [16] = experiment: Effect of SAP18 mRNA expression in human SK-HEP1 cells at 2.5 uM incubated for 36 hrs by RNA sequencing analysis; type: functional, cell-based
# SK-HEP1 [17] = experiment: Effect of CSTB mRNA expression in human SK-HEP1 cells at 2.5 uM incubated for 36 hrs by RNA sequencing analysis; type: functional, cell-based
# SK-HEP1 [18] = experiment: Effect of POSTN mRNA expression in human SK-HEP1 cells at 2.5 uM incubated for 36 hrs by RNA sequencing analysis; type: functional, cell-based
# SK-HEP1 [19] = experiment: Effect of ABI3BP mRNA expression in human SK-HEP1 cells at 2.5 uM incubated for 36 hrs by RNA sequencing analysis; type: functional, cell-based
# SK-HEP1 [20] = experiment: Effect of SIRT6 mRNA expression in human SK-HEP1 cells at 2.5 uM incubated for 36 hrs by RNA sequencing analysis; type: functional, cell-based
# SK-HEP1 [21] = experiment: Effect of genes related to cell apoptosis in human SK-HEP1 cells at 2.5 uM incubated for 36 hrs by GSEA analysis; type: functional, cell-based
# SK-HEP1 [22] = experiment: Downregulation of TEDC1 expression in human SK-HEP1 cells at 2.5 uM incubated for 36 hrs; type: functional, cell-based
# [23] = biological target: T1, Protein cereblon/NAD-dependent protein deacylase sirtuin-6; experiment: PROTAC activity at CRBN/SIRT6 in human SK-HEP1 cells assessed as disruption of CHD4 recruitment to DSB sites at 2.5 uM incubated for 36 hrs followed by irradiation (10 Gy) treatment for 4 hrs by Western blot analysis; type: cell-based; conditions: time 40.0 hrs
# [24] = biological target: T1, Protein cereblon/NAD-dependent protein deacylase sirtuin-6; experiment: PROTAC activity at CRBN/SIRT6 in human U2OS cells expressing EJ5 assessed as inhibition of SNF2H loading onto chromatin incubated for 36 hrs by FACS analysis; type: cell-based
# SK-HEP1 [25] = experiment: Synergistic antitumor activity against human SK-HEP1 cells xenografted in BALB/c nude mouse at 10 mg/kg treated for 28 to 30 days in presence of sorafenib relative to control; type: functional; conditions: time 28-30 day
# [26] = Toxicity in BALB/c nude mouse xenografted with human SK-HEP1 cells assessed as body weight loss at 10 mg/kg treated for 28 to 30 days; type: organism-based; conditions: in vivo, time 28-30 day
# [27] = biological target: T1, Protein cereblon/NAD-dependent protein deacylase sirtuin-6; experiment: In vivo PROTAC activity of CRBN/SIRT6 in human SK-HEP1 cells xenografted in BALB/c nude mouse assessed as induction of SIRT6 degradation at 10 mg/kg treated for 28 to 30 days under irradiation (3 Gy); type: functional, organism-based; conditions: time 28-30 day
# [28] = Toxicity in BALB/c nude mouse xenografted with human SK-HEP1 cells assessed as pathological damage in liver at 10 mg/kg treated for 28 to 30 days by H and E staining based analysis; type: organism-based; conditions: in vivo, time 28-30 day
# [29] = Toxicity in BALB/c nude mouse xenografted with human SK-HEP1 cells assessed as pathological damage in heart at 10 mg/kg treated for 28 to 30 days in presence of sorafenib by H and E staining based analysis; type: organism-based; conditions: in vivo, time 28-30 day
# [30] = Toxicity in BALB/c nude mouse xenografted with human SK-HEP1 cells assessed as histopathological abnormalities in heart at 10 mg/kg treated for 28 to 30 days in presence of sorafenib by H and E staining based analysis; type: organism-based; conditions: in vivo, time 28-30 day
# [31] = Toxicity in BALB/c nude mouse xenografted with human SK-HEP1 cells assessed as histopathological abnormalities in spleen at 10 mg/kg treated for 28 to 30 days in presence of sorafenib by H and E staining based analysis; type: organism-based; conditions: in vivo, time 28-30 day
# [32] = Toxicity in BALB/c nude mouse xenografted with human SK-HEP1 cells assessed as histopathological abnormalities in spleen at 10 mg/kg treated for 28 to 30 days under irradiation (3 Gy) by H and E staining based analysis; type: organism-based; conditions: in vivo, time 28-30 day
# SK-HEP1 [33] = experiment: Induction of apoptosis in human SK-HEP1 cells xenografted in BALB/c nude mouse assessed as increase in cleaved caspase-3 level at 10 mg/kg treated for 28 to 30 days under irradiation (3 Gy); type: functional, organism-based; conditions: time 28-30 day
# SK-HEP1 [34] = experiment: Inhibition of cell proliferation of human SK-HEP1 cells xenografted in BALB/c nude mouse at 10 mg/kg treated for 28 to 30 days under irradiation (3 Gy); type: functional, organism-based; conditions: time 28-30 day
# T1 sequence (Q8N6T7 2-355 limits assumed): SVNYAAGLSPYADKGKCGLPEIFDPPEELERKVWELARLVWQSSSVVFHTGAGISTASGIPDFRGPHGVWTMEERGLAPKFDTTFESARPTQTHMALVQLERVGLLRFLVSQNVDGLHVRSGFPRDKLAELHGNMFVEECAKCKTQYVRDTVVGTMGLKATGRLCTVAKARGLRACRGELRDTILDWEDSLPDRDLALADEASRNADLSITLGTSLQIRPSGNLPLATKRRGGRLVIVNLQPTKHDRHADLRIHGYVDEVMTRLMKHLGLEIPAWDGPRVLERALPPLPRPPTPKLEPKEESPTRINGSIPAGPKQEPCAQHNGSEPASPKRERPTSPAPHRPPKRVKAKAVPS
# T1 sequence (Q96SW2 whole entry partner): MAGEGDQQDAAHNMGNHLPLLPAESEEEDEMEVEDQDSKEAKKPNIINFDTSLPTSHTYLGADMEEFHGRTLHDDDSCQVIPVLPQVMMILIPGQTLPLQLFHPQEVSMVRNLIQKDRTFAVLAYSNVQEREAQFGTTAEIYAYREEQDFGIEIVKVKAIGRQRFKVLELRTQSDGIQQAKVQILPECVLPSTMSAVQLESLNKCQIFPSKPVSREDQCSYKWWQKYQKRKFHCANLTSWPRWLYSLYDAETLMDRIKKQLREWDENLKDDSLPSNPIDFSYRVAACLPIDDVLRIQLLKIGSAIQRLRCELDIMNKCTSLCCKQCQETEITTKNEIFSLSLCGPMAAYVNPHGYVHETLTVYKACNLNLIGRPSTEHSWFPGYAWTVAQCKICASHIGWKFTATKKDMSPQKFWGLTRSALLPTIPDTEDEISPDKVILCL
smiles,measurement,setting,value
Nc1cc(N2CCN(CC3CCN(c4cc5c(cc4F)C(=O)N(C4CCC(=O)NC4=O)C5=O)CC3)CC2)ccc1[N+](=O)[O-] (stereo not given),Activity,[1],Active
same,Activity,[2],Active
same,Activity,SK-HEP1 [3],No effect
same,Activity,[4],Dose-dependent-effect
same,Activity,[5],Dose-dependent-effect
same,Activity,[6],Dose-dependent-effect
same,Activity,[7],Dose-dependent-effect
same,Activity,[8],Not active; Sirt6 Level Slowly Recovered Within 24 Hrs After Treatment
same,Activity,[9],inactive
same,IC50,SK-HEP1 [10],1.51 µM
same,inhibition,SK-HEP1 [11],Active
same,Activity,SK-HEP1 [12],Active
same,Activity,SK-HEP1 [12]; record 2,<=60%
same,Activity,SK-HEP1 [13],Active
same,Activity,SK-HEP1 [14],Active; Only Slight Downregulation Observed
same,Activity,SK-HEP1 [15],No effect
same,Activity,SK-HEP1 [16],Active
same,Activity,SK-HEP1 [17],Active
same,Activity,SK-HEP1 [18],Active
same,Activity,SK-HEP1 [19],Active
same,Activity,SK-HEP1 [20],No effect; The Mrna Level Did Not Markedly Change
same,Activity,SK-HEP1 [21],Active
same,Activity,SK-HEP1 [22],Active
same,Activity,[23],Active
same,inhibition,[24],Active; Results In Decrease In Hr And Nhej Efficiencies
same,T/C,SK-HEP1 [25],18.2%
same,Activity,[26],Non-toxic
same,Activity,[27],Active
same,Activity,[28],Non-toxic
same,Activity,[29],Non-toxic
same,Activity,[30],Non-toxic
same,Activity,[31],Non-toxic
same,Activity,[32],Non-toxic
same,Activity,SK-HEP1 [33],Active
same,inhibition,SK-HEP1 [34],Active
